Measured values: article PMC11945486, “TAS1R2/TAS1R3 Single-Nucleotide Polymorphisms Affect Sweet Taste Receptor Activation by Sweeteners: The SWEET Project” (Nutrients, 2025)
Like-named read-outs stand apart in the source and are kept apart here. No end group written: not given here.

Biological target: T1, human TAS1R2-WT/TAS1R3-A5T (Homo sapiens, UniProt Q7RTX0+Q8TE23, A5T)
T1 construct: expressed in transfected cells; host or cells: HEK293T stably expressing Gα16gust44
T1 sequence (Q8TE23 20-839): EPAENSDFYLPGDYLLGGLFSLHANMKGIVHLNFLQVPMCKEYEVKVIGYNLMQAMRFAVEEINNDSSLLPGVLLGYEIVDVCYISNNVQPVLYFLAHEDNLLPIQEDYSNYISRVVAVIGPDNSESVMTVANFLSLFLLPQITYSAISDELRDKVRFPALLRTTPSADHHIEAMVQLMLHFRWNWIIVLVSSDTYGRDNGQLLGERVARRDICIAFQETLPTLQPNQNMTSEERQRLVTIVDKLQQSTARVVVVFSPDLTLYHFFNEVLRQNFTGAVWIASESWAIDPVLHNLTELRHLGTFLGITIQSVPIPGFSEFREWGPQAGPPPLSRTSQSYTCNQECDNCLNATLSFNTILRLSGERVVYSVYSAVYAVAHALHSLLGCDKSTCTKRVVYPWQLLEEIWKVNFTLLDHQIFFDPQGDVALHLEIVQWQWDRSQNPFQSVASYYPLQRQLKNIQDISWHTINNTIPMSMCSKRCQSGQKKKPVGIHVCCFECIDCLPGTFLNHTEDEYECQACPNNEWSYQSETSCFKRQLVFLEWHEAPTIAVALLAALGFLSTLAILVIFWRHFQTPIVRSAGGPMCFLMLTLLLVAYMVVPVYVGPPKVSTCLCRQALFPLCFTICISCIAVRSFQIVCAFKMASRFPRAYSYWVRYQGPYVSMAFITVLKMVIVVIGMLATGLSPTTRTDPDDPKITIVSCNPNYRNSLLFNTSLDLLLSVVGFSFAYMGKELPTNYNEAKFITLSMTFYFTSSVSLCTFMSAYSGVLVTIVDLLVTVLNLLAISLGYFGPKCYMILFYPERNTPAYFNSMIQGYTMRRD
T1 sequence (Q7RTX0 21-852): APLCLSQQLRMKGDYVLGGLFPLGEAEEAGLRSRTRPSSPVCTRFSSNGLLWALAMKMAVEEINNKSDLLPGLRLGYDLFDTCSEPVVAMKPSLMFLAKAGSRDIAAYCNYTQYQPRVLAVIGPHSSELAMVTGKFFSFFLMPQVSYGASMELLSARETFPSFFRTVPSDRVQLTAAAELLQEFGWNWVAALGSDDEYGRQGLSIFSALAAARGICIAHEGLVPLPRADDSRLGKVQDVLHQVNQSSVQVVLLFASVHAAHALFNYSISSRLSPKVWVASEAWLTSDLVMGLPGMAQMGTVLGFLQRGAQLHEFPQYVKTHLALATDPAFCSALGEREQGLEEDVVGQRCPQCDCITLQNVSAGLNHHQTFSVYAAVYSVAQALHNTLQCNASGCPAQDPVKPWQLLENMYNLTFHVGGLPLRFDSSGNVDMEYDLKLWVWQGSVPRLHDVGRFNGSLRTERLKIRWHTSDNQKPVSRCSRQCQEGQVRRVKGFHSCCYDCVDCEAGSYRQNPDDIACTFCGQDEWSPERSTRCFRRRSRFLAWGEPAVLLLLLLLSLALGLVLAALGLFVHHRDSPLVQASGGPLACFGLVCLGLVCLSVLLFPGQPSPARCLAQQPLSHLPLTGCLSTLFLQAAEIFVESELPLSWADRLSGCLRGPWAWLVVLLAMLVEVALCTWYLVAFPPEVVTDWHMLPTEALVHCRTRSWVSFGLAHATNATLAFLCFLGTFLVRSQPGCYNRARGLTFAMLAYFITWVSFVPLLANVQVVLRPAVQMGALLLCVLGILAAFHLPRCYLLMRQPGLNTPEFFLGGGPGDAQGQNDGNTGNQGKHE
Experiment: Calcium mobilisation assay, TAS1R2-WT with TAS1R3 variant A5T
Assay type: cell-based
Details: for Max ΔF/F0: maximal signal amplitude
Excerpt: The coding sequences for TAS1R2 and TAS1R3 were commercially synthesised, and the human codon was optimised for expression in human cells. The coding sequences of human TAS1R2 and TAS1R3 were subcloned and inserted into the mammalian expression vectors pcDNA6/myc-HisA and pcDNA4/myc-HisA (Invitrogen; Thermo Fisher Scientific; Illkirch, France) between the EcoRI and NotI restriction sites, generating the plasmids pcDNA6-TAS1R2 and pcDNA4-TAS1R3, respectively. To increase protein expression in mammalian cells, an upstream start codon was used, which was a sequence called MAX, corresponding to the QBI SP163 element also described in pcDNA4-HisMax (Invitrogen; Thermo Fisher Scientific; Illkirch, France). To measure the expression level of the receptor by immunohistochemistry, we used the FLAG sequence ([…]) in the C-terminal position, which encodes the FLAG tag epitope. SNP variants of TAS1R2 and TAS1R3 were constructed based on […], respectively, using site-directed mutagenesis (Genewiz; Leipzig, Germany).
The HEK293T cells were kindly provided by Jay P. Slack (Givaudan Flavors Corporation; Cincinnati, OH, USA). HEK293T cells stably transfected with Gα16gust44 [43, 67] were seeded in poly-D-lysine-coated clear-bottom black 96-well plates (0.35 × 10^5 cells/well) in high-glucose DMEM supplemented with 2 mM GlutaMAX, 10% dialysed foetal bovine serum with penicillin/streptomycin and G418 (400 μg/mL) at 37 °C and 6.3% CO2 in a humidified atmosphere as previously reported. […] As a negative control, HEK293T cells were mock-transfected with the empty expression vector. After a further 24 h of incubation, the HEK293T cells were washed with C1 buffer (130 mM NaCl, 5 mM KCl, 10 mM HEPES pH 7.4 and 2 mM CaCl2). The 96-well plates containing the cells were then stimulated with sweet-tasting compounds. […] Different concentration ranges were tested depending on the sweet compound injected. The Ca^2+ changes were expressed as fractional changes in fluorescent light intensity: ΔF/F = (F − F0)/F0, where F was the fluorescent light intensity at each point, and F0 was the value of emitted fluorescent light prior to stimulus application. To calculate dose–response relationships, the changes in fluorescence upon stimulus application were averaged, mock-subtracted and baseline-corrected. The dose–response data obtained were adjusted using a 4-parameter logistic equation. The half-maximal effective concentrations (EC50 values) and maximal signal amplitudes were calculated using SigmaPlot software (version 15.0) (Systat Software; San Jose, CA, USA).
For in vitro calcium mobilisation assay performed on hTAS1R2-SNPs, hTAS1R3-SNPs and mTAS1R3-I60T, 6 to 7 concentrations were tested for each sweet compound, plus buffer alone. All concentration–receptor combinations were measured in duplicate, and each experiment was repeated at least 4 times (8 wells/concentration). Results were expressed for each concentration as ΔF/F mean ± SEM and represented as dose–response curves.

Molecule | R1 = Variant EC50/WT EC50 | Max ΔF/F0 | EC50 (read-out: EC50) [µM] | EC50 (brazzein) [µg/mL]
CC1=CC(=O)NS(=O)(=O)O1 [Acesulfame K, acesulfame K] | 1.4 | 0.31 ± 0.01 | 852 ± 34 | –
O=S(=O)(O)NC1CCCCC1 [Cyclamate, cyclamate] | – | – | 1790 ± 35 | –
C[C@H](CC[C@@H](O[C@@H]1O[C@H](CO[C@@H]2O[C@H](CO)[C@@H](O)[C@H](O)[C@H]2O)[C@@H](O)[C@H](O)[C@H]1O[C@@H]1O[C@H](CO)[C@@H](O)[C@H](O)[C@H]1O)C(C)(C)O)[C@H]1CC[C@@]2(C)[C@@H]3CC=C4[C@@H](CC[C@H](O[C@@H]5O[C@H](CO[C@@H]6O[C@H](CO)[C@@H](O)[C@H](O)[C@H]6O)[C@@H](O)[C@H](O)[C@H]5O)C4(C)C)[C@]3(C)[C@H](O)C[C@]12C [Mogroside V, mogroside V] | 1.0 | 0.97 ± 0.01 | 31.3 ± 1 | –
COc1ccc(CCC(=O)c2c(O)cc(O[C@@H]3O[C@H](CO)[C@@H](O)[C@H](O)[C@H]3O[C@@H]3O[C@@H](C)[C@H](O)[C@@H](O)[C@H]3O)cc2O)cc1O [NHDC, neohesperidin dihydrochalcone] | 1.5 | 1.24 ± 0.01 | 76.5 ± 13.1 | –
COC(=O)[C@H](Cc1ccccc1)NC(=O)[C@H](CC(=O)O)NCCC(C)(C)C [Neotame] | 1.0 | 0.65 ± 0.01 | 1.18 ± 0.05 | –

Continued, values first:

R1 = Variant EC50/WT EC50 | Max ΔF/F0 | EC50 (read-out: EC50) [µM] | EC50 (brazzein) [µg/mL] | Molecule
1.0 | 1.42 ± 0.23 | 13.2 ± 6.4 | – | C=C(C)[C@@H]1CC=C(/C=N/O)CC1 [Perillartine, perillartine]
0.7 | 1.06 ± 0.02 | 30.2 ± 1.5 | – | C=C1C[C@@]23CC[C@H]4[C@@](C)(CCC[C@@]4(C)C(=O)O[C@@H]4O[C@H](CO)[C@@H](O)[C@H](O[C@@H]5O[C@H](CO)[C@@H](O)[C@H](O)[C@H]5O)[C@H]4O[C@@H]4O[C@H](CO)[C@@H](O)[C@H](O)[C@H]4O)[C@@H]2CC[C@]1(O[C@@H]1O[C@H](CO)[C@@H](O)[C@H](O[C@@H]2O[C@H](CO)[C@@H](O)[C@H](O)[C@H]2O)[C@H]1O[C@@H]1O[C@H](CO)[C@@H](O)[C@H](O)[C@H]1O)C3 [Rebaudioside M, rebaudioside M]
1.2 | 0.63 ± 0.01 | 135 ± 5 | – | OC[C@H]1O[C@H](O[C@]2(CCl)O[C@H](CCl)[C@@H](O)[C@@H]2O)[C@H](O)[C@@H](O)[C@H]1Cl [Sucralose]
1.0 | 1.04 ± 0.04 | – | 108.3 ± 11.5 | brazzein (QDKCKKVYENYPVSKCQLANQCNYDCKLDKHARSGECFYDEKRNLQCICDYCEY; ends and bridges not checked; cysteine pairing not given here; UniProt P56552 1-54, looked up) [sweet-tasting protein obtained by recombinant production using the yeast Pichia pastoris]
0.9 | 0.73 ± 0.04 | 9.7 ± 0.8 | – | thaumatin
